According to ChEMBL document CHEMBL1149789, “SAR and QSAR studies: modelling of new DAPY derivatives” (Eur J Med Chem, 2008):

What was measured:
[1] = tested on: Human immunodeficiency virus; test: Inhibition of HIV reverse transcriptase
[2] = Partition coefficient, log P of the compound; format: physicochemical; details: octanol/water

EC50 [1] [nM]	logP ([2]; read-out: logP)	SMILES	logP [2]
2.3	1.79	Cc1cc(Br)cc(C)c1Nc1ccnc(Nc2ccc(C#N)cc2)n1	–
0.7	1.74	Cc1cccc(C)c1Nc1ccnc(Nc2ccc(C#N)cc2)n1	–
1	1.9	Cc1cc(C)c(Nc2ccnc(Nc3ccc(C#N)cc3)n2)c(C)c1 [DAPIVIRINE]	–
1	1.74	Cc1cc(C)c(Nc2nc(Nc3ccc(C#N)cc3)ncc2C#N)c(C)c1	–
1	1.14	Cc1cc(Cl)cc(Cl)c1Nc1ccnc(Nc2ccc(C#N)cc2)n1	–
2.9	1.97	Cc1cc(Br)cc(C)c1Oc1ccnc(Nc2ccc(C#N)cc2)n1	–
0.7	1.69	Cc1cc(Br)c(Nc2ccnc(Nc3ccc(C#N)cc3)n2)c(Br)c1	–
2.5	2.36	C=Cc1cnc(Nc2ccc(C#N)cc2)nc1Nc1c(C)cc(C#N)cc1C	–
1.7	2.17	Cc1cc(C)c(Nc2nc(Nc3ccc(C#N)cc3)ncc2C)c(C)c1	–
5.5	1.79	C#Cc1cc(C)c(Oc2ccnc(Nc3ccc(C#N)cc3)n2)c(C)c1	–
1.4	1.82	Cc1cc(C#N)cc(C)c1Oc1nc(Nc2ccc(C#N)cc2)nc(N)c1Br [ETRAVIRINE]	–
3.6	2.42	Cc1cc(C)c(Sc2ccnc(Nc3ccc(C#N)cc3)n2)c(C)c1	–
1.4	1.54	Cc1cc(C#N)cc(C)c1Oc1nc(Nc2ccc(C#N)cc2)ncc1Cl	–
2.1	1.52	Cc1cc(Cl)cc(C)c1Nc1ccnc(Nc2ccc(C#N)cc2)n1	–

The remaining lines, values behind:

SMILES	EC50 [1] [nM]	logP ([2]; read-out: logP)	logP [2]
Cc1cc(C#N)cc(C)c1Oc1nc(Nc2ccc(C#N)cc2)ncc1Br	1.4	1.82	–
Cc1cc(C)c(Nc2nc(Nc3ccc(C#N)cc3)ncc2Cl)c(C)c1	2.7	1.8	–
Cc1cnc(Nc2ccc(C#N)cc2)nc1Nc1c(C)cc(C#N)cc1C	0.8	1.74	–
Cc1cc(C#N)cc(C)c1Nc1nc(Nc2ccc(C#N)cc2)ncc1Cl	1.2	1.37	–
CC(=O)Nc1cnc(Nc2ccc(C#N)cc2)nc1Oc1c(C)cc(C#N)cc1C	–	-0.12	–
Cc1cc(C#N)cc(C)c1Nc1nc(Nc2ccc(C#N)cc2)ncc1C#N	0.5	1.31	–
Cc1cc(C#N)cc(C)c1Oc1nc(Nc2ccc(C#N)cc2)ncc1[N+](=O)[O-]	18	–	-0.98
Cc1cc(C#N)cc(C)c1Oc1nc(Nc2ccc(C#N)cc2)ncc1N	1	0.05	–
Cc1cc(C)c(Nc2nc(Nc3ccc(C#N)cc3)ncc2Br)c(C)c1	5.5	2.07	–
N#Cc1ccc(Nc2nccc(Nc3c(Cl)cc(Cl)cc3Cl)n2)cc1	0.7	0.77	–
Cc1cc(C#N)cc(C)c1Oc1ccnc(Nc2ccc(C#N)cc2)n1	1.1	1.64	–
Cc1cc(C#N)cc(C)c1Nc1ccnc(Nc2ccc(C#N)cc2)n1	0.4	1.47	–
Cc1cc(C)c(Oc2ccnc(Nc3ccc(C#N)cc3)n2)c(C)c1	2.9	2.07	–
Cc1cc(C#N)cc(C)c1Nc1nc(Nc2ccc(C#N)cc2)ncc1Br	0.4	1.64	–
C#Cc1cnc(Nc2ccc(C#N)cc2)nc1Nc1c(C)cc(C)cc1C	–	1.89	–
Cc1cc(Br)cc(C)c1Sc1ccnc(Nc2ccc(C#N)cc2)n1	5.7	2.31	–
N#Cc1ccc(Nc2nccc(Nc3c(Br)cc(F)cc3Br)n2)cc1	0.6	0.94	–
